Structures are written as SMILES.

Experimental findings from patent US8334315B2, “Substituted aromatic carboxamide and urea derivatives as vanilloid receptor ligands” (Gruenenthal GmbH, priority 2009, dated 2012) are described below.

In assay [1] the target is T1, rat-species vanilloid receptor 1 (VR1/TRPV1) (Rattus norvegicus, UniProt O35433).
T1 construct: endogenous in cells; host or cells: primary cells dissociated from rat dorsal root ganglia (DRG), cultured 2-3 days with NGF
In words: Functional testing on the vanilloid receptor 1, FLIPR Ca2+ influx in rat DRG cells, capsaicin. It counts as cell-based. Also noted: key to Ki (rat) [nM] Cap: agonist / partial agonist / no effect: AG=agonist; pAG=partial agonist; NE=no effect. An excerpt:
I. Functional Testing Carried Out on the Vanilloid Receptor 1 (VRI/TRPV1 Receptor)
The agonistic or antagonistic effect of the substances to be tested on the rat-species vanilloid receptor 1 (VR1/TRPV1) can be determined using the following assay. In this assay, the influx of Ca^2+ through the receptor channel is quantified with the aid of a Ca^2+-sensitive dye (type Fluo-4, Molecular Probes Europe BV, Leiden, the Netherlands) in a fluorescent imaging plate reader (FLIPR, Molecular Devices, Sunnyvale, USA).
Complete medium: 50 ml HAMS F12 nutrient mixture (Gibco Invitrogen GmbH, Karlsruhe, Germany) with
10% by volume of FCS (foetal calf serum, Gibco Invitrogen GmbH, Karlsruhe, Germany, heat-inactivated);
2 mM L-glutamine (Sigma, Munich, Germany);
1% by weight of AA solution (antibiotic/antimyotic solution, PAA, Pasching, Austria) and 25 ng/ml NGF medium (2.5 S, Gibco Invitrogen GmbH, Karlsruhe, Germany)
Cell culture plate: Poly-D-lysine-coated, black 96-well plates having a clear base (96-well black/clear plate, BD Biosciences, Heidelberg, Germany) are additionally coated with laminin (Gibco Invitrogen GmbH, Karlsruhe, Germany), the laminin being diluted with PBS (Ca—Mg-free PBS, Gibco Invitrogen GmbH, Karlsruhe, Germany) to a concentration of 100 μg/ml. Aliquots having a laminin concentration of 100 μg/ml are removed and stored at −20° C. The aliquots are diluted with PBS in a ratio of 1:10 to 10 μg/ml of laminin and respectively 50 μL of the solution are pipetted into a recess in the cell culture plate. The cell culture plates are incubated for at least two hours at 37° C., the excess solution is removed by suction and the recesses are each washed twice with PBS. The coated cell culture plates are stored with excess PBS which is not removed until just before the feeding of the cells.
Preparation of the Cells:
The vertebral column is removed from decapitated rats and placed immediately into cold HBSS buffer (Hank's buffered saline solution, Gibco Invitrogen GmbH, Karlsruhe, Germany), i.e. buffer located in an ice bath, mixed with 1% by volume (per cent by volume) of an AA solution (antibiotic/antimyotic solution, PAA, Pasching, Austria). The vertebral column is cut longitudinally and removed together with fasciae from the vertebral canal. Subsequently, the dorsal root ganglia (DRG) are removed and again stored in cold HBSS buffer mixed with 1% by volume of an AA solution. The DRG, from which all blood remnants and spinal nerves have been removed, are transferred in each case to 500 μL of cold type 2 collagenase (PAA, Pasching, Austria) and incubated for 35 minutes at 37° C. After the addition of 2.5% by volume of trypsin (PAA, Pasching, Austria), incubation is continued for 10 minutes at 37° C. After complete incubation, the enzyme solution is carefully pipetted off and 500 μL of complete medium are added to each of the remaining DRG. The DRG are respectively suspended several times, drawn through cannulae No. 1, No. 12 and No. 16 using a syringe and transferred to a 50 ml Falcon tube which is filled up to 15 ml with complete medium. The contents of each Falcon tube are respectively filtered through a 70 μm Falcon filter element and centrifuged for 10 minutes at 1,200 rpm and RT. The resulting pellet is respectively taken up in 250 μL of complete medium and the cell count is determined.
The number of cells in the suspension is set to 3×10^5 per ml and 150 μL of this suspension are in each case introduced into a recess in the cell culture plates coated as described hereinbefore. In the incubator the plates are left for two to three days at 37° C., 5% by volume of CO2 and 95% relative humidity. […]

Assay [2] deals with T2, hVR1 (Homo sapiens, UniProt Q8NER1).
T2 construct: expressed in transfected cells; host or cells: CHO K1 cells (ECACC), stably transfected
T2 sequence (Q8NER1 whole entry): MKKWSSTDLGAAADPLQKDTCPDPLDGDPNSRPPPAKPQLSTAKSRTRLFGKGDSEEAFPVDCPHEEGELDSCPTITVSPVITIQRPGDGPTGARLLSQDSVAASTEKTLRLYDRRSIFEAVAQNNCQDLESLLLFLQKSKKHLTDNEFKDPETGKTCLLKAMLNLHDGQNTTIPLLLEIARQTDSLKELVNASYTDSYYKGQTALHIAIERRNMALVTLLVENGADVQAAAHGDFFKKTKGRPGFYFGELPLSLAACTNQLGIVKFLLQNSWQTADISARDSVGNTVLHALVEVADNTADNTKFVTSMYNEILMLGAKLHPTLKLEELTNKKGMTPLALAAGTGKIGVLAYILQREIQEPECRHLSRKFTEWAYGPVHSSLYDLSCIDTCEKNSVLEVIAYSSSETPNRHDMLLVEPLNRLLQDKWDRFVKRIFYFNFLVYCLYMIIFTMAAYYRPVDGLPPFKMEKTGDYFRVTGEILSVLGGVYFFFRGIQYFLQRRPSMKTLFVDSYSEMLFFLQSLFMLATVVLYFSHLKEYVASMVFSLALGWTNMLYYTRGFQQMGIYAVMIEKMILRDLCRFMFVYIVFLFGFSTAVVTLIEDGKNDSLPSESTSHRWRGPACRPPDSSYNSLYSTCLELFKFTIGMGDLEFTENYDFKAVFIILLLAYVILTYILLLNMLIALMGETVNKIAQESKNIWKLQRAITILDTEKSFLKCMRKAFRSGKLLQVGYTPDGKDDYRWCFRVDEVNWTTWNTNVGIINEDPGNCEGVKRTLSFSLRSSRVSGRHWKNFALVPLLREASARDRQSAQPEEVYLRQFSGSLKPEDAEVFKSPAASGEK
In words: Functional test on human VR1, 45° C. stimulus. In kind it is cell-based, human being. Also noted: key to IC50 (human being), 45° C.: agonist / partial agonist / no effect: AG=agonist; pAG=partial agonist; NE=no effect. Particulars: for IC50: read-out: IC50 (human being) [nM], 45° C.

Assay [3] has as its target T2, hVR1. Nature of the assay: Functional test on VR1, FLIPR Ca2+ influx in transfected CHO K1 cells, capsaicin. It counts as cell-based, human being. More on the design: key to Ki (human being) [nM] Cap: agonist / partial agonist / no effect: AG=agonist; pAG=partial agonist; NE=no effect. Particulars: for Ki: capsaicin (Cap), includes values given in brackets after pAG, read-out: Ki (human being) [nM] Cap. An excerpt:
In the process, the Ca^2+ influx is quantified in the FLIPR assay with the aid of a Ca^2+-sensitive dye (type Fluo-4, Molecular Probes Europe BV, Leiden, the Netherlands) in a fluorescent imaging plate reader (FLIPR, Molecular Devices, Sunnyvale, USA), as described hereinafter.
II. Functional Tests Carried Out on the Vanilloid Receptor (VR1)
The agonistic or antagonistic effect of the substances to be tested on the vanilloid receptor 1 (VR1) can also be determined using the following assay. In this assay, the influx of Ca^2+ through the channel is quantified with the aid of a Ca^2+-sensitive dye (type Fluo-4, Molecular Probes Europe BV, Leiden, the Netherlands) in a fluorescent imaging plate reader (FLIPR, Molecular Devices, Sunnyvale, USA).
Chinese hamster ovary cells (CHO K1 cells, European Collection of Cell Cultures (ECACC) United Kingdom) are stably transfected with the VR1 gene. For functional testing, these cells are plated out on poly-D-lysine-coated black 96-well plates having a clear base (BD Biosciences, Heidelberg, Germany) at a density of 25,000 cells/well. The cells are incubated overnight at 37° C. and 5% CO2 in a culture medium (Ham's F12 nutrient mixture, 10% by volume of FCS (foetal calf serum), 18 μg/ml of L-proline). The next day the cells are incubated with Fluo-4 (Fluo-4 2 μM, 0.01% by volume of Pluronic F127, Molecular Probes in HBSS (Hank's buffered saline solution), Gibco Invitrogen GmbH, Karlsruhe, Germany) for 30 minutes at 37° C. Subsequently, the plates are washed three times with HBSS buffer and after further incubation for 15 minutes at RT used for Ca^2+ measurement in a FLIPR assay. The Ca^2+-dependent fluorescence is measured before and after the addition of the substances to be tested (λex wavelength=488 nm, λem=540 nm). Quantification is carried out by measuring the highest fluorescence intensity (FC, fluorescence counts) over time.
The FLIPR protocol consists of 2 substance additions. First the compounds to be tested (10 μM) are pipetted onto the cells and the Ca^2+ influx is compared with the control (capsaicin 10 μM) (% activation based on the Ca^2+ signal after the addition of 10 μM of capsaicin). After 5 minutes' incubation, 100 nM of capsaicin are applied and the Ca^2+ influx is also determined.
Desensitising agonists and antagonists led to suppression of the Ca^2+ influx. The % inhibition is calculated compared to the maximum achievable inhibition with 10 μM of capsaicin.
Starting from the percentage displacement caused by different concentrations of the compounds to be tested of general formula I, IC50 inhibitory concentrations which cause a 50-per cent displacement of capsaicin were calculated. Ki values for the test substances were obtained by conversion by means of the Cheng-Prusoff equation (Cheng, Prusoff; Biochem. Pharmacol. 22, 3099-3108, 1973).
The affinity of the compounds according to the invention for the vanilloid receptor 1 (VR1/TRPV1 receptor) was determined as described hereinbefore (pharmacological methods I and II respectively).

Assay [4] addresses T2, hVR1. In words: Functional test on hVR1 after pH stimulus. More on the design: key to IC50 (human being) hVR1, pH: agonist / partial agonist / no effect: AG=agonist; pAG=partial agonist; NE=no effect. In kind it is cell-based, human being.

T1 sequence (O35433 whole entry): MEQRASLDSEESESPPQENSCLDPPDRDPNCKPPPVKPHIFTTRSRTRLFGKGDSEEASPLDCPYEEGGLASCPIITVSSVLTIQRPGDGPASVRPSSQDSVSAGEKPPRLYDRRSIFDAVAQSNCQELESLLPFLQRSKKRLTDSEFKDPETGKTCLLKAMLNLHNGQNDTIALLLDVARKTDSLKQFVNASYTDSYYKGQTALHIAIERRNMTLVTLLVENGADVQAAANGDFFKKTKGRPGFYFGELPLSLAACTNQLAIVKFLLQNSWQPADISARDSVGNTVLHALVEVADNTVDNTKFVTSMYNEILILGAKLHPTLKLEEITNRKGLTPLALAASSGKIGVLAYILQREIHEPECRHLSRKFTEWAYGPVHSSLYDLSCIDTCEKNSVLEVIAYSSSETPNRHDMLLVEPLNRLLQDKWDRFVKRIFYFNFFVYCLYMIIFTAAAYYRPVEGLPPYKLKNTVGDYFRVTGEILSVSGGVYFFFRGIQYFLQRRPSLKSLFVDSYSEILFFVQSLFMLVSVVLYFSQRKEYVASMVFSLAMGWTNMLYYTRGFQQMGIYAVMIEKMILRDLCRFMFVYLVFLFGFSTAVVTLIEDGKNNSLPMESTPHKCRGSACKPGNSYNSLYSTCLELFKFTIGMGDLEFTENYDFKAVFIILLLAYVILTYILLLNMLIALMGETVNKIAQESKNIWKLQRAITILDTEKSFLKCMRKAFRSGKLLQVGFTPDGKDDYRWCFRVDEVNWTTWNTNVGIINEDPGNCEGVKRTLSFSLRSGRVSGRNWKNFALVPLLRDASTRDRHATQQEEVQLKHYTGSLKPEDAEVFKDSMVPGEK

Consider `CC(C(=O)NCc1cc(C(C)(C)C)nn1-c1cccc(Cl)c1)c1cccc2c1OCCO2` (centres unmarked) [Example 14, N-((3-tert-butyl-1-(3-chlorophenyl)-1H-pyrazol-5-yl)methyl)-2-(2,3-dihydrobenzo[b][1,4]dioxin-5-yl)propanamide], for which the “Ki (rat) [nM] Cap: agonist / partial agonist / no effect” value in assay [1] was “AG”.
Usually Ki stands for the equilibrium dissociation constant of an inhibitor or competing ligand from its target. A word on the IC50: it is the concentration that inhibits the measured activity by half. With `CC(C(=O)NCc1cc(C(C)(C)C)nn1-c1cccc(Cl)c1)c1ccc2c(c1)OCCCO2` (centres unmarked) [Example 15, N-((3-tert-butyl-1-(3-chlorophenyl)-1H-pyrazol-5-yl)methyl)-2-(3,4-dihydro-2H-benzo[b][1,4]dioxepin-7-yl)propanamide], the “IC50 (human being), 45° C.: agonist / partial agonist / no effect” value at hVR1 [2] is “pAG”. On hVR1 [3], the “Ki (human being) [nM] Cap: agonist / partial agonist / no effect” value is on record as “pAG” and the Ki was determined as 25 nM. For the same molecule, the “Ki (rat) [nM] Cap: agonist / partial agonist / no effect” value in assay [1] is listed as “AG”. The “IC50 (human being) hVR1, pH: agonist / partial agonist / no effect” value on hVR1 [4] is reported as “pAG”. The 50% inhibitory concentration (IC50) at hVR1 [4] (includes value printed in brackets after pAG, read-out: IC50 (human being) hVR1 [nM], pH) is 412 nM.
As for `CC(C(=O)NCc1cc(C(F)(F)F)nn1-c1cccc(Cl)c1)c1ccc2[nH]ccc2c1` (centres unmarked) [Example 31, N-((1-(3-chlorophenyl)-3-(trifluoromethyl)-1H-pyrazol-5-yl)methyl)-2-(1H-indol-5-yl)propanamide], at hVR1 [3], the “Ki (human being) [nM] Cap: agonist / partial agonist / no effect” value is on record as “pAG” and the Ki is 2.4 nM. Further, the “IC50 (human being) hVR1, pH: agonist / partial agonist / no effect” value at hVR1 [4] is “pAG”.
`CC(C(=O)NCc1cc(C(F)(F)F)nn1-c1cccc(Cl)c1)c1ccc2[nH]ncc2c1` (centres unmarked) [Example 35, N-((1-(3-chlorophenyl)-3-(trifluoromethyl)-1H-pyrazol-5-yl)methyl)-2-(1H-indazol-5-yl)propanamide]: the “IC50 (human being), 45° C.: agonist / partial agonist / no effect” value at hVR1 [2] is given as “pAG”. Besides, on hVR1 [3], the “Ki (human being) [nM] Cap: agonist / partial agonist / no effect” value was “pAG” and the Ki is 0.3 nM. The “IC50 (human being) hVR1, pH: agonist / partial agonist / no effect” value at hVR1 [4] is given as “pAG”.
Usually inhibition stands for the percentage by which the read-out fell short of the control. Regarding `Cc1cc2c(C(C)C(=O)NCc3cc(C(F)(F)F)nn3-c3cccc(Cl)c3)cccc2cn1` (centres unmarked) [Example 65, N-((1-(3-chlorophenyl)-3-(trifluoromethyl)-1H-pyrazol-5-yl)methyl)-2-(3-methylisoquinolin-5-yl)propanamide], the IC50 on hVR1 [2] came out at 780 nM. At hVR1 [3], the Ki amounted to 0.3 nM. On hVR1 [4] (@ 10 μM, read-out: IC50 (human being) hVR1, pH: inhibition (as a percentage)), the inhibition at 10 µM amounted to 23%.
With `CC(C(=O)NCc1cc(C(C)(C)C)nn1-c1cccc(Cl)c1)c1cccc2ncccc12` (centres unmarked) [Example 70, N-((3-tert-butyl-1-(3-chlorophenyl)-1H-pyrazol-5-yl)methyl)-2-(quinolin-5-yl)propanamide], on hVR1 [2], the “IC50 (human being), 45° C.: agonist / partial agonist / no effect” value is recorded as “AG”. Further, at hVR1 [3], the “Ki (human being) [nM] Cap: agonist / partial agonist / no effect” value was “AG”. For the same molecule, the “IC50 (human being) hVR1, pH: agonist / partial agonist / no effect” value at hVR1 [4] is given as “AG”.
For `O=C(NCc1cc(C(F)(F)F)nn1-c1cccc(Cl)c1)Nc1ccc2c(c1)OCCO2` [Example 84, 1-((1-(3-chlorophenyl)-3-(trifluoromethyl)-1H-pyrazol-5-yl)methyl)-3-(2,3-dihydrobenzo[b][1,4]dioxin-6-yl)urea], the IC50 on hVR1 [2] is 235 nM. For the same molecule, the Ki on hVR1 [3] was 51.6 nM; in assay [1] (capsaicin (Cap), includes values given in brackets after pAG), 181 nM.
Take `O=C(NCc1cc(C(F)(F)F)nn1-c1cccc(Cl)c1)Nc1ccc2ncsc2c1` [Example 96, 1-(benzo[d]thiazol-6-yl)-3-((1-(3-chlorophenyl)-3-(trifluoromethyl)-1H-pyrazol-5-yl)methyl)urea]: at hVR1 [3], the “Ki (human being) [nM] Cap: agonist / partial agonist / no effect” value is “pAG” and the inhibitory constant (Ki) is 7.3 nM. Moreover, the “IC50 (human being) hVR1, pH: agonist / partial agonist / no effect” value at hVR1 [4] is “pAG”.
On to `COc1ccc2cccc(C(C)C(=O)NCc3cc(C(F)(F)F)nn3-c3cccc(Cl)c3)c2c1` (centres unmarked) [Example 212, N-((1-(3-chlorophenyl)-3-(trifluoromethyl)-1H-pyrazol-5-yl)methyl)-2-(7-methoxynaphthalen-1-yl)propanamide], for which, at hVR1 [2], the IC50 was 626 nM. In addition, the inhibition constant (Ki) at hVR1 [3] is 8.3 nM.
For the molecule `CC(C(=O)NCc1cc(C(F)(F)F)nn1-c1cccc(Cl)c1)c1cccc2cnc(Cl)cc12` (centres unmarked) [Example 213, 2-(3-chloroisoquinolin-5-yl)-N-((1-(3-chlorophenyl)-3-(trifluoromethyl)-1H-pyrazol-5-yl)methyl)propanamide], the IC50 at hVR1 [2] is 264 nM. Also, the Ki at hVR1 [3] is 0.07 nM.
For `CC(C)(C)c1cc(CNC(=O)Nc2cc(F)cc3[nH]ncc23)n(-c2ccccn2)n1` [Example 216, 1-((3-tert-butyl-1-(pyridin-2-yl)-1H-pyrazol-5-yl)methyl)-3-(6-fluoro-1H-indazol-4-yl)urea] the same measures were 2120 nM and 54 nM.
